# Measured values from patent US6977271B1, “Method for inhibition of angiogenesis and vasculogenesis” (Health Research, Inc., priority 2001, dated 2005).
# Key:
# [1] = tested on: rat mammary stromal cells (MSC); experiment: In vitro angiogenesis assay: microcapillary network formation on EHS-RBM; type: cell-based; conditions: 7 days in culture; for microcapillary network diameter: 75, 100 and 125 μM
# Experimental: An in vitro angiogenesis assay, the formation of microcapillary networks by rat mammary stromal vascular precursor cells on the angiogenic substrate, EHS-RBM, was used to compare the isomer- and concentration-dependent effects of mixed CLA isomers and c9,t11- and t10,c12-CLA. Rat mammary stromal cells (MSC) have the ability to act as true vascular precursors and were isolated from mammary glands as described (Zangani et al., 1999).
# CLA-containing media was prepared as follows. Briefly, 18.1 μl of 5N NaOH was added to 28.2 μl of CLA (0.9 g/ml, FW 280) in a small Erlenmeyer flask, followed by vortexing, to make the sodium salt. Warm fetal calf serum (10 ml) was added, sonicated 3–4× with brief pulses (5 sec each), and then gassed with nitrogen and the flask sealed with parafilm. The mixture was incubated in a sonicating water bath for 30 min, followed by 5 min incubation in a 50° C. water bath. FBS (11.9 ml) was added to the flask, to bring the CLA to a final 33× concentration (4.125 mM).
# Early passage MSC (prior to passage 4) were cultured in a 24 well plate at 2×10^4 cells/well, plated onto 0.4 ml EHS-RBM in the presence of phenol red free F12/DME with 3% FCS, supplemented with 0, 25, 50, 75, 100 or 125 μM CLA. After 7 days in culture, when the cells had formed multiple colonies of three-dimensional networks of tubules (Zangani et al., 1999), capillary networks were photographed, and the extent of network formation was assessed by measuring four planar diameters, at 45° intervals, of the branching colonies. The five largest colonies in each of three wells per group were assessed, for a total of fifteen colonies for each concentration of CLA per experiment. This experiment was replicated twice.
# [2] = tested on: Flk-1 (VEGF receptor 2); experiment: Western blot of Flk-1 in whole mammary gland lysates; type: in vivo, CD2/F1 mice
# Experimental: (§1) Alternately, for analysis of whole mammary gland levels of VEGF and Flk-1, 10 mice per group were placed on diet at 8 weeks of age, and mice were sacrificed 7 weeks after diet initiation. Mammary glands were snap-frozen in liquid nitrogen to be utilized for preparation of whole gland lysates.
# Whole mammary glands (gland four) were dissected after sacrifice from mice fed control- or CLA-supplemented diets, snap-frozen in liquid nitrogen and stored at −80° C. Lysates were prepared by pulverizing the frozen glands in a liquid nitrogen-cooled metal pulverizer to a fine powder. The powder was weighed in a pre-tared microfuge tube, and resuspended in ice-cold Triton X-100 lysis buffer (50 mM Tris, pH7.5 at room temperature, 250 mM NaCl, 5 mM EDTA, 0.1% (v/v) Triton X-100, supplemented with 0.1 mM PMSF, 20 ng/ml leupeptin and 100 ng/ml soybean trypsin inhibitor) using 2 ml per gram of tissue. The powder was then homogenized in an ice-cold microfuge tube, using 10–15 strokes of a fitted glass homogenizer. Samples were incubated on ice for 30 minutes, and then centrifuged for 10 min at 4° C. at 8,000×g. The supernatants were then aliquoted and frozen at −20° C. An aliquot of the sample was used to determine protein concentration, using the Bio-Rad protein assay. Immediately before electrophoresis, samples were prepared for loading by adding 4× Laemmli SDS-sample buffer at a 1:3 ratio to the thawed sample. The sample was then boiled, sonicated, and centrifuged for 10 min at 4° C., 8,000×g in a microfuge, before loading supernatant. Lysates from 7 mice per dietary group were analyzed.
# Lysates were loaded using equal protein per well, and proteins were separated on a 7.5% reducing SDS-gel according to the method of Laemmli well known in the art. Proteins were transferred to nitrocellulose using a Bio-Rad Transblot Apparatus (Hercules, Calif.). Blots were blocked with Blotto (TBS (10 mM Tris, pH 8.0, 150 mM NaCl), 0.5% Tween 20, 5% (w/v) non-fat dry milk). All antibody incubations and subsequent rinses were performed in Blotto, with vigorous rocking. Rabbit anti-VEGF-A was used at a final concentration of 2 μg/ml, and rabbit anti-Flk-1 was used at a final concentration of 1 μg/ml. To control for variability in loading, the same blots used for VEGF were stripped and probed for Flk-1. The blots were then stripped again and probed with mouse antisera to hsc70, at a 1:20,000 final concentration. Hsc70 was used as a control for cellular protein loading of western blots, as a constitutively expressed cytoplasmic housekeeping protein. […] Specific antibody-reactive bands were quantified by densitometry using a Model 300A Scanning Laser Densitometer and ImageQuant software (Molecular Dynamics).
# [3] = tested on: mouse forestomach neoplasia; conditions: Ha et al, 1990; cited from earlier work
# [4] = tested on: EHS-RBM pellet (angiogenic challenge); experiment: In vivo EHS-RBM angiogenesis assay; set-up: species or system CD2/F1 mice
# Experimental: (§2) To determine the effects of dietary CLA on angiogenesis, the in vivo angiogenesis model of Kibbey et al., 1992 was utilized. Briefly, CD2/F1 female mice were placed on diets with or without CLA at 8 or 12 weeks of age, with 10–12 mice per group per experiment. After 6 weeks of diet, mice were given bilateral injections of EHS-RBM containing 1.25 μg/ml bFGF and 60 μg/ml heparan sulfate using a 25-gauge needle, into the region of mammary gland four. Mice were sacrificed 7 days after injection. Blood was collected from the trunk for preparation of plasma for analysis of VEGF levels. Pellets and adjacent normal mammary gland tissue were removed and formalin fixed for paraffin embedding. This experiment was repeated four times.
# Microsope visual fields, visualized with a 20× objective were analyzed for cellular invasion, and with a 40× objective for the presence of functional blood vessels, for a final magnification of 200 or 400×, respectively. The ability of dietary CLA to affect cellular invasion into the EHS-RBM pellet was analyzed on H&E-stained paraffin sections by counting the number of nuclei per field, excluding all acellular regions that remained uninvaded. A total of 68 fields were assessed in 13 pellets from mice on control diets, 75 fields were assessed from 9 pellets from mice on 1% CLA diets, and 62 fields analyzed from 13 pellets, obtained from mice on 2% CLA diets. We analyzed all pellets retrieved from the animals; there was a decline in the number of visible pellets in CLA-fed animals.
# Functional angiogenesis was quantified by determining the number of cell-lined structures with patent lumen and red blood cells. H&E stained paraffin sections were visualized by epifluorescent illumination; red blood cells are strongly fluorescent due to their intensely eosinophilic cytoplasm. This intensity is easily distinguished from the dimly fluorescent nucleated cells. The relative dimness of nucleated cells may be partly due to the presence of nuclear and/or cytoplasmic hematoxylin, which quenches fluorescence. A total of 162 fields were analyzed from 21 slides from control diet animals, 158 fields were analyzed from 21 slides from 1% CLA diet animals, and 174 fields were analyzed from 13 slides from 2% CLA diet animals.
# [5] = tested on: VEGF-A; experiment: Serum VEGF analysis by ELISA after EHS-RBM challenge; type: in vivo, CD2/F1 mice; conditions: for reduction of average serum VEGF levels: 7 days after angiogenic challenge, relative to control diet
# Experimental: as §2
# Serum VEGF (VEGF-A) levels were assessed by ELISA using a commercial kit (Quantikine M mouse VEGF ELISA, R&D Systems), as per the manufacturer's instructions. VEGF levels were assessed in sera from mice which had been on diet for a total of 7 weeks, and had received EHS-RBM angiogenic challenge 1 week prior to sacrifice.
# [6] = tested on: mouse epidermal carcinogenesis; conditions: Ha et al, 1987; Belury et al, 1996; cited from earlier work
# [7] = tested on: rat mammary carcinogenesis; conditions: Ip et al, 1991, 1994, 1995; cited from earlier work
# [8] = tested on: aberrant crypt foci in the rat colon; conditions: Liew et al, 1995; cited from earlier work
# [9] = tested on: MDA-MB468 breast cancer cells and DU-145 prostatic tumor cells; conditions: MDA-MB468 and DU-145 cells in SCID mice; Visonneau et al, 1997; Cesano et al, 1998; cited from earlier work
# [10] = tested on: VEGF; experiment: Western blot of VEGF in whole mammary gland lysates; type: in vivo, CD2/F1 mice; conditions: dietary CLA 7 weeks, no angiogenic challenge, dose-dependent
# Experimental: as §1
# Whole mammary glands (gland four) were dissected after sacrifice from mice fed control- or CLA-supplemented diets, snap-frozen in liquid nitrogen and stored at −80° C. Lysates were prepared by pulverizing the frozen glands in a liquid nitrogen-cooled metal pulverizer to a fine powder. The powder was weighed in a pre-tared microfuge tube, and resuspended in ice-cold Triton X-100 lysis buffer (50 mM Tris, pH7.5 at room temperature, 250 mM NaCl, 5 mM EDTA, 0.1% (v/v) Triton X-100, supplemented with 0.1 mM PMSF, 20 ng/ml leupeptin and 100 ng/ml soybean trypsin inhibitor) using 2 ml per gram of tissue. The powder was then homogenized in an ice-cold microfuge tube, using 10–15 strokes of a fitted glass homogenizer. […] Lysates from 7 mice per dietary group were analyzed.
# Lysates were loaded using equal protein per well, and proteins were separated on a 7.5% reducing SDS-gel according to the method of Laemmli well known in the art. […] Specific antibody-reactive bands were quantified by densitometry using a Model 300A Scanning Laser Densitometer and ImageQuant software (Molecular Dynamics).
compound,measurement,setting,value
"CCCCCC/C=C/C=C\CCCCCCCC(=O)O [c9,t11-CLA, cis-9, trans-11 CLA]",microcapillary network diameter,[1],significantly decreased
"CCCCC/C=C\C=C\CCCCCCCCC(=O)O [t10,c12-CLA]",microcapillary network size,[1]; 100 and 125 μM,significant decreased
Conjugated Linoleic Acid [CLA],expression of Flk-1 protein on western blot,[2]; animals fed 2% CLA,uniformly low expression
same,"mammary gland Flk-1 60 kDa band, scanning densitometry","[2]; dietary CLA, dose-dependent",statistically significant decrease
same,"mammary gland Flk-1 200 kDa band, scanning densitometry","[2]; dietary CLA, dose-dependent",statistically significant decrease
same,expression of Flk-1 protein on western blot,[2]; mice fed 1% CLA,variable expression
same,BP-induced mouse forestomach neoplasia,[3],inhibit
same,functional angiogenesis within the EHS pellet (structures containing red blood cells),[4]; 1% CLA diet vs control diet,significantly decreased
same,functional angiogenesis within the EHS pellet (structures containing red blood cells),[4]; 2% CLA diet vs control diet,significantly decreased
same,"cellular invasion, number of nuclei per field in the invaded regions of the pellet","[4]; CLA-fed mice (1% or 2% CLA diet) vs control diet, 7 days after EHS-RBM injection",significantly decreased
same,average measured depth of cellular infiltration of the pellet,"[4]; CLA-fed vs control mice, data not shown",not different
same,microcapillary network diameter,[1],significantly decreased
same,total number of colonies and size/extent of their branching,[1]; MSC on EHS-RBM,inhibited
same,reduction of average serum VEGF levels,[5]; 1% CLA diet for 7 weeks,approximately 40%
same,reduction of average serum VEGF levels,[5]; 2% CLA diet for 7 weeks,approximately 40%
same,systemic effect on serum VEGF with or without angiogenic challenge,[5]; data not shown,only significant in mice stimulated by angiogenic challenge
same,DMBA-induced mouse epidermal carcinogenesis,[6],inhibit
same,DMBA- and NMU-induced rat mammary carcinogenesis,[7],inhibit
same,incidence of aberrant crypt foci in the rat colon,[8],inhibit
same,size and metastatic spread of human tumor cells,[9],reduce
same,"mammary gland VEGF 28 kDa band, densitometry normalized to hsc70",[10],significantly decreased
same,"mammary gland VEGF 54 kDa band, densitometry normalized to hsc70",[10],significantly decreased
